Reference: US20200206313A1, “POLYPEPTIDE NANOTUBES LINKED BY DISULFIDE BONDS FOR TARGETED DELIVERY OF CYTOTOXIC THERAPIES” (MUSC FOUNDATION FOR RESEARCH DEVELOPMENT, priority 2018, published 2020)
No end group written: not given here. *: point of attachment. FITC = O=C1OC2(c3ccc(O)cc3Oc3cc(O)ccc32)c2ccc(NC(=S)*)cc21

Tests used:
[1] = Stability of mature nanotubes by AFM; assay type: physicochemical; settings: ~9-months old nanotubes
Protocol: AFM experiments were performed on a NX-10 AFM (Park systems) system in the non-contact mode. The protein sample was dropped onto freshly cleaved mica and incubated for 20 min. After rinsing with Milli-Q water two times, the sample was dried in a desiccator. […] The tip radius was <10 nm. Images were obtained at a scan rate of 1 Hz.

MDAMB231 = assay: Cytotoxicity, MTT assay, MDAMB231; assay type: cell-based
Protocol: (§1) HeLa (Cervical cancer cell line), MDA-MB-231 (Breast cancer cell line) and HaCaT (Human keratinocytes) cells were maintained in growth medium consisting of Dulbecco's Modified Eagle's Medium (DMEM, Gibco, India) with high glucose, supplemented with 10% FBS and 1% penicillin-streptomycin. The cells were grown in […] flasks (BD Falcon) and passaged every three days. All culture reagents were purchased from Thermofisher scientific. The serum free media was used to eliminate any confounding effects from serum adsorption to the nanotubes. Within the time-period (5 h) of the experiment, no adverse cellular responses were observed from serum deprivation or serum shock after a transfer from serum containing growth media.
(§2) Cytotoxicity of nanotube, DOX loaded nanotube and free DOX were assessed in HeLa and MDAMB231 using the MTT assay. About 5×10^3 cells were seeded per well of a 96-well plate and allowed to attach during incubation for 24 h in a humidified incubator at 37° C. Cells were treated with different concentrations of nanotubes, free DOX or DOX loaded nanotubes ranging from 0.2 to 6.4 μg/ml. Four hours before termination of the assay, MTT was added. Mitochondria of viable cells […] MTT to produce purple Formazan crystals. […] The absorbance of each well was measured at 570 nm using a microplate reader (Synergy HT, BioTek Instrument Inc., Winooski Vt.). […]

Zeta potential = assay type: physicochemical
Protocol: The Nano tubular size distribution was measured on Zetasizer (Malvern, Southborough, Mass., USA). The changes in the surface charges of free nanotube and nanotube-DOX were probed via the zeta potential using Nano ZS (Malvern, Southborough, Mass., USA).

[2] = Stability of nanotubes by fluorescence emission spectra at various pH and temperature; assay type: physicochemical
Protocol: Fluorescence spectra were acquired on a Perkin Elmer Fluorescence spectrometer. Spectra were recorded for protein samples prepared in 10 mM Tris buffer at pH 7 or 12 (i.e., neutral and basic pH) and 10 mM HEPES buffer at pH 2 (acidic pH) and data were recorded using a 1.0 cm path length quartz cuvette. An excitation wavelength of 280 nm (tyrosine excitation) was used having slit width 2.5 nm and emission spectra were collected from 300 nm to 550 nm with λmax at 340 nm.

[3] = tested on: integrin-induced phosphorylation of FAK at tyrosine 397; assay: Integrin signaling: Western blot of FAK phosphorylation at tyrosine 397 in HeLa cells; assay type: cell-based; settings: 500 ng/ml, 1 h
Protocol: Cells were maintained as mentioned above in 65 mm dishes. HeLa cells were serum starved for 24 h to remove the effect of serum on cells. Cells were treated with nanotubes or full length IGFBP-2 (1-289) for 1 h in serum-free DMEM. An additional set of cells was treated for 1 h with nanotubes or full length IGFBP-2 without the integrin pathway inhibitor (RGDS) under the same conditions. For control treatments, cells were pretreated with 10 mM RGDS peptide for 1 h. Later, cells were washed once with PBS and lysed in detergent lysis buffer (150 mM NaCl (Sigma Aldrich, USA), 0.1% SDS (Calbiochem, Germany), 0.5% NP40 (Amresco, USA), 1 mM EDTA (pH 8) and protease inhibitor cocktail, PIC (Calbiochem) with gentle vortexing at 4° C. for 20 min and centrifuged at 10,000×g for 10 min. The soluble fraction was separated and, protein estimation was done by Bradford assay. 30 μg of total protein was dissolved in SDS sample buffer (240 mM Tris-HCl (pH 6.8), 8% (w/v) SDS, 0.1% bromophenol blue and 40% (v/v) glycerol), heated at 96° C. for 10 min and centrifuged briefly. Samples were resolved on 12.5% SDS-polyacrylamide gels in Tris-glycine electrophoresis buffer (pH 8.3) containing 25 mM Tris base, 250 mM glycine and 0.1% SDS at 100 Volts for 2 h. […]

HeLa = assay: Cytotoxicity, MTT assay, HeLa; assay type: cell-based
Protocol: as §1, §2

HeLa cells [4] = assay: Cellular uptake of DOX by FACS, HeLa; assay type: cell-based; settings: percentage population, 0.4 μg/ml, the sentence does not name the cell line (HeLa assumed)
Protocol: Fluorescence-activated cell sorting (FACS) was used to quantify the cellular uptake of free Doxorubicin and that released from the Nanotube-DOX conjugates exposed to HeLa and HaCaT cells. The cells were treated with free DOX and Nanotube-DOX for 0.5, 1, 2 and 4 h using concentrations corresponding to their IC50 values. The cells were washed with DPBS to remove the unassimilated DOX and then trypsinized. The cell suspension was then centrifuged, and the pellet was re-suspended in 300 μl of DPBS with 0.1% of FBS. The DOX uptake was estimated by quantifying the cell populations using FACS employing Cell Quest software (using a FACSCalibur instrument, BD Biosciences, San Jose Calif.).

[5] = In vitro DOX release by dialysis method; assay type: physicochemical; settings: physiological pH 7.4, 37° C., free DOX versus nanotube-DOX
Protocol: In-vitro drug release experiments were conducted using the dialysis method. The Nanotube-DOX conjugate was dialyzed against medium under different conditions: pH 5, pH 7.4, pH 7.4 with addition of 10 mM GSH, pH 5+10 mM GSH, pH 7.5+10 mM GSH+Enzyme (trypsin) and pH 5+10 mM GSH+trypsin. GSH was used to stimulate redox conditions and trypsin was used to investigate the effect of a non-specific enzyme on nanotube drug carrying ability. As a control free DOX was dialyzed against the same medium at physiological pH (7.4). All dialysis experiments were performed using a dialysis kit having a molecular mass cutoff of 1 kDa. Samples were dialyzed against the DMEM medium without phenol red (Thermofisher scientific) containing 1% P/S (Penicillin-Streptomycin, Cat no, India), 10% FBS (Fetal bovine serum, RM10432, Himedia, India) separately, with gentle and constant stirring at 37° C. At specific time points, aliquots of the medium were collected and absorbance at 495 nm was measured to quantify the release of DOX.

HeLa cells [6] = assay: Confocal visualization of cellular uptake of DOX in HeLa cells; assay type: cell-based; settings: 0.4 μg/ml, 1 h and 4 h
Protocol: (§3) For microscopic analysis, cells were grown on sterile coverslips with all treatments performed in DMEM without serum for 1 h or 4 h. Treatment was terminated by removing medium and cells washing cells twice with PBS followed by nuclear staining with DAPI (4′,6-diamidino-2-phenylindole) for 10 min at room temperature. Cells were then washed with DPBS and excess buffer was removed. Coverslips were then treated with Antifade (Thermo Fisher Scientific India Private Ltd.) and sealed to a sterile glass slide and analyzed by confocal microscopy (LSM 510 Meta equipped with an Airyscan module, Zeiss, GmbH, Germany).

[7] = tested on: integrin receptors on the cell surface (HeLa cells); assay: Confocal imaging of nanotube-FITC interaction with HeLa cells; assay type: cell-based; settings: for change of cell-associated signal after integrin inhibitor RGDS: 1 h with 25 μg/ml inhibitor after 4 h incubation
Protocol: as §3

nanotube: Self-assembled disulfide-linked nanotube of polypeptide hIGFBP-2 249-289 (R281C), SEQ ID NO: 1, with RGD motif (GPLGSPGIRGSCVNPNTGKLIQGAPTIRGDPECHLFYNEQQEACGVHTQRMT; not fully specified (bridges); also: self-assembled nanotube, subunits linked by intermolecular disulfides (Cys12, Cys33, Cys44))
morphological characteristics on storage [1]: intact
cytotoxicity of nanotube alone (MDAMB231; MDAMB231, after 48 h): did not cause any appreciable cytotoxicity
zeta potential (Zeta potential): −21.4 mV
stability at different pH ([2]; pH 2, 7 and 12, fluorescence spectra): stable at all the three pH
stability at high temperature ([2]; pH 7, 90° C., fluorescence spectra): intact
pFAK induction in presence of RGDS inhibitor ([3]; RGDS pre-treatment): compromised
intensity of pFAK ([3]; absence of inhibitor): higher compared to control cells
cytotoxicity of nanotube alone (HeLa; after 48 h): did not cause any appreciable cytotoxicity

COc1cccc2c1C(=O)c1c(O)c3c(c(O)c1C2=O)C[C@@](O)(C(=O)CO)C[C@@H]3O[C@H]1C[C@H](N)[C@H](O)[C@H](C)O1.Cl [free DOX, Doxorubicin hydrochloride]
cells killed (MDAMB231; MDAMB231, 5 μg/ml, 48 h): ~70%
increase in Dox uptake from 2 h to 4 h (HeLa cells [4]): more than 5 fold
release of DOX into the medium [5]: faster than that of DOX loaded on the nanotube
intracellular localization of drug (HeLa cells [6]): major accumulation is seen within nuclei
cells killed (HeLa; 5 μg/ml, 48 h): ~70%

nanotube-FITC (GPLGSPGIRGSCVNPNTGK(FITC)LIQGAPTIRGDPECHLFYNEQQEACGVHTQRMT; not fully specified (bridges); also: self-assembled nanotube, subunits linked by intermolecular cysteine disulfides)
internalization / cellular distribution ([7]; 360 ng/ml, 4 h, serum free medium): no significant internalization
change of cell-associated signal after integrin inhibitor RGDS [7]: prominent loss of nanotube-FITC intensity

Fluorescein isothiocyanate [free FITC, reference compound]
change of cell-associated signal after integrin inhibitor RGDS [7]: does not show a significant decrease
